According to US9375002B2, “5-aminopyrimidine derivatives and use thereof for combating undesired plant growth” (BAYER INTELLECTUAL PROPERTY GMBH, priority 2012, dated 2016):
Values belong to the compound of their own block, whether it stands above or below them.

How the values were obtained:
[1] = logp (HCOOH), physicochemical characterization; conditions: for chromatographic logP: HCOOH (formic acid)
[2] = system: Amaranthus retroflexus; assay: Pre-emergence herbicidal effect; format: in vivo; conditions: 1280 g/ha, visual assessment after 3 weeks
Excerpt: (§1) 1. Pre-Emergence Herbicidal Effect and Crop Plant Compatibility Seeds of monocotyledonous and dicotyledonous weed plants and crop plants are placed in wood-fiber pots in sandy loam and covered with soil. The inventive compounds, formulated in the form of wettable powders (WP) or as emulsion concentrates (EC), are then applied to the surface of the covering soil as an aqueous suspension or emulsion at a water application rate of 600 to 800 I/ha (converted) with addition of 0.2% wetting agent. After the treatment, the pots are placed in a greenhouse and kept under good growth conditions for the test plants. The damage to the test plants is assessed visually after a test period of 3 weeks by comparison with untreated controls (herbicidal activity in percent (%): 100% action=the plants have died, 0% action=like control plants). AMARE: Amaranthus retroflexus ECHCG: Echinochloa crus-galli

[3] = system: Polygonum convolvulus; assay: Pre-emergence herbicidal effect; format: in vivo; conditions: 1280 g/ha, visual assessment after 3 weeks
Excerpt: as §1, with “POLCO: Polygonum convolvulus SETVI: Setaria viridis” for “AMARE: Amaranthus retroflexus ECHCG: Echinochloa crus-galli”

[4] = system: Stellaria media; assay: Pre-emergence herbicidal effect; format: in vivo; conditions: 1280 g/ha, visual assessment after 3 weeks
Excerpt: as §1, with “STEME: Stellaria media VERPE: Veronica persica” for “AMARE: Amaranthus retroflexus ECHCG: Echinochloa crus-galli”

[5] = system: Veronica persica; assay: Pre-emergence herbicidal effect; format: in vivo; conditions: 1280 g/ha, visual assessment after 3 weeks
Excerpt: as §1, with “STEME: Stellaria media VERPE: Veronica persica” for “AMARE: Amaranthus retroflexus ECHCG: Echinochloa crus-galli”

[6] = system: Matricaria inodora; assay: Pre-emergence herbicidal effect; format: in vivo; conditions: 1280 g/ha, visual assessment after 3 weeks
Excerpt: as §1, with “LOLMU: Lolium multiflorum MATIN: Matricaria inodora” for “AMARE: Amaranthus retroflexus ECHCG: Echinochloa crus-galli”

[7] = system: Viola tricolor; assay: Pre-emergence herbicidal effect; format: in vivo; conditions: 1280 g/ha, visual assessment after 3 weeks
Excerpt: as §1, with “VIOTR: Viola tricolor” for “AMARE: Amaranthus retroflexus ECHCG: Echinochloa crus-galli”

[8] = system: Amaranthus retroflexus; assay: Post-emergence herbicidal effect; format: in vivo; conditions: 1280 g/ha, visual rating after about 3 weeks
Description: (§2) AMARE: Amaranthus retroflexus ECHCG: Echinochloa crus-galli 2. Post-Emergence Herbicidal Effect and Crop Plant Compatibility Seeds of monocotyledonous and dicotyledonous weed and crop plants are placed in sandy loam in wood-fiber pots, covered with soil and cultivated in a greenhouse under good growth conditions. 2 to 3 weeks after sowing, the test plants are treated at the one-leaf stage. The compounds according to the invention, formulated in the form of wettable powders (WP) or as emulsion concentrates (EC), are then sprayed as aqueous suspension or emulsion at a water application rate of 600 to 800 I/ha (converted) with the addition of 0.2% of wetting agent onto the green parts of the plants. After the test plants have been kept in the greenhouse under optimum growth conditions for about 3 weeks, the activity of the preparations is rated visually in comparison to untreated controls (herbicidal activity in percent (%): 100% activity=the plants have died, 0% activity=like control plants).

[9] = system: Echinochloa crus-galli; assay: Pre-emergence herbicidal effect; format: in vivo; conditions: 1280 g/ha, visual assessment after 3 weeks
Excerpt: as §1

[10] = system: Setaria viridis; assay: Pre-emergence herbicidal effect; format: in vivo; conditions: 1280 g/ha, visual assessment after 3 weeks
Excerpt: as §1, with “POLCO: Polygonum convolvulus SETVI: Setaria viridis” for “AMARE: Amaranthus retroflexus ECHCG: Echinochloa crus-galli”

[11] = system: Abutilon theophrasti; assay: Post-emergence herbicidal effect; format: in vivo; conditions: 1280 g/ha, visual rating after about 3 weeks
Description: as §2, with “ABUTH: Abutilon theophrasti ALOMY: Alopecurus myosuroides” for “AMARE: Amaranthus retroflexus ECHCG: Echinochloa crus-galli”

[12] = system: Lolium multiflorum; assay: Pre-emergence herbicidal effect; format: in vivo; conditions: 1280 g/ha, visual assessment after 3 weeks
Excerpt: as §1, with “LOLMU: Lolium multiflorum MATIN: Matricaria inodora” for “AMARE: Amaranthus retroflexus ECHCG: Echinochloa crus-galli”

[13] = system: Alopecurus myosuroides; assay: Pre-emergence herbicidal effect; format: in vivo; conditions: 1280 g/ha, visual assessment after 3 weeks
Excerpt: as §1, with “ABUTH: Abutilon theophrasti ALOMY: Alopecurus myosuroides” for “AMARE: Amaranthus retroflexus ECHCG: Echinochloa crus-galli”

[14] = system: Polygonum convolvulus; assay: Post-emergence herbicidal effect; format: in vivo; conditions: 1280 g/ha, visual rating after about 3 weeks
Description: as §2, with “POLCO: Polygonum convolvulus SETVI: Setaria viridis” for “AMARE: Amaranthus retroflexus ECHCG: Echinochloa crus-galli”

[15] = system: Veronica persica; assay: Post-emergence herbicidal effect; format: in vivo; conditions: 1280 g/ha, visual rating after about 3 weeks
Description: as §2, with “STEME: Stellaria media VERPE: Veronica persica” for “AMARE: Amaranthus retroflexus ECHCG: Echinochloa crus-galli”

SMILES: Cc1cc(C)c2c(c1)C(Nc1cnc(S(C)(=O)=O)nc1)CCO2 (racemic) [compound 62]
logp (HCOOH) [1]: wax-like; logp (HCOOH): 4.06; 1H-NMR (CDCl3, 400 MHZ, δ in ppm): 2.10-2.35 (m,

SMILES: CCc1ccc2c(c1)C(Nc1cnc(S(C)(=O)=O)nc1C#N)CCO2 (racemic) [compound 66]
herbicidal activity AMARE [2]: 100%
herbicidal activity POLCO [3]: 90%
herbicidal activity STEME [4]: 100%
herbicidal activity VERPE [5]: 100%
herbicidal activity MATIN [6]: 90%
herbicidal activity VIOTR [7]: 100%
logp (HCOOH) [1]: wax-like; logp (HCOOH): 2.54; 1H-NMR (CDCl3, 400 MHZ, δ in ppm): 1.15 (t, 3H,

SMILES: CCc1ccc2c(c1)C(Nc1cnc(C(F)(F)F)nc1)CCO2 (racemic) [compound 70]
logp (HCOOH) [1]: wax-like; logp (HCOOH): 3.41; 1H-NMR (CDCl3, 400 MHZ, δ in ppm): 1.15 (t, 3H,

chromatographic logP [1]: 2.8
SMILES: CCc1ccc2c(c1)C(Nc1cnc(C#N)nc1)CCO2 (centres unmarked) [Ex. 64, 5-[(6-Ethyl-3,4-dihydro-2H-chromen-4-yl)amino]pyrimidine-2-carbonitrile]

melting point: 123.7 °C
chromatographic logP [1]: 3.05
SMILES: FC(F)(F)c1ncc(N[C@@H]2CCc3ccccc32)cn1 [Ex. 115, N-[(1R)-2,3-Dihydro-1H-inden-1-yl]-2-(trifluoromethyl)pyrimidine-5-amine]

SMILES: Cc1ccc2c(c1)[C@H](Nc1cnc(C#N)nc1)[C@@H](C)C2 [compound 76]
logp (HCOOH) [1]: wax-like; logp (HCOOH): 3.17; 1H-NMR (CDCl3, 400 MHZ, δ in ppm): 1.25 (d, 3H,

SMILES: CS(=O)(=O)c1ncc(N[C@@H]2CCCc3ccccc32)c(C(N)=O)n1 [compound 87]
logp (HCOOH) [1]: wax-like; logp (HCOOH): 1.86; 1H-NMR (CDCl3, 400 MHZ, δ in ppm): 1.85 (m, 2H, 2H

chromatographic logP [1]: 2.21
SMILES: Cc1ccc2c(c1)[C@H](Nc1cnc(S(C)(=O)=O)nc1C(N)=O)[C@@H](C)C2 [compound 93, 5-{[(1R,2S)-2,6-Dimethyl-2,3-dihydro-1H-inden-1-yl]amino}-2-(methylsulfonyl)pyrimidine-4-carboxamide]
herbicidal activity AMARE [8]: 80%
herbicidal activity ECHCG [9]: 100%
herbicidal activity AMARE [2]: 100%
herbicidal activity POLCO [3]: 100%
herbicidal activity SETVI [10]: 90%
herbicidal activity STEME [4]: 100%
herbicidal activity VERPE [5]: 100%
herbicidal activity ABUTH [11]: 80%
herbicidal activity MATIN [6]: 100%
herbicidal activity LOLMU [12]: 90%
herbicidal activity ALOMY [13]: 90%
herbicidal activity VIOTR [7]: 100%

SMILES: Cc1ccc2c(c1)[C@H](Nc1cnc(S(C)(=O)=O)nc1C#N)[C@@H](C)C2 [compound 108]
logp (HCOOH) [1]: solid; logp (HCOOH): 3.29; 1H-NMR (CDCl3, 400 MHZ, δ in ppm): 1.25 (d, 3H, CH3);

SMILES: CS(=O)(=O)c1ncc(N[C@@H]2CCc3ccccc32)cn1 [compound 131]
herbicidal activity POLCO [14]: 80%
herbicidal activity AMARE [8]: 80%
herbicidal activity VERPE [15]: 80%
herbicidal activity ECHCG [9]: 100%
herbicidal activity POLCO [3]: 100%
herbicidal activity SETVI [10]: 90%
herbicidal activity STEME [4]: 100%
herbicidal activity VERPE [5]: 100%
herbicidal activity MATIN [6]: 100%

SMILES: Cc1ccc2c(c1)[C@H](Nc1cnc(S(C)(=O)=O)nc1C(=O)NC1CC1)[C@@H](C)C2 [compound 139]
herbicidal activity AMARE [2]: 100%
herbicidal activity STEME [4]: 100%
herbicidal activity VERPE [5]: 100%
herbicidal activity MATIN [6]: 100%
herbicidal activity LOLMU [12]: 100%
herbicidal activity ALOMY [13]: 90%
herbicidal activity VIOTR [7]: 100%
